Results published in patent US20240115534A1, “COMPOSITION FOR MUSCLE ENHANCEMENT AND USE OF SAME” (J-OIL MILLS, INC., priority 2021, published 2024).

System: mouse myoblast strain C2C12 (myotube cells)
Test: Myotube area and maximum transverse diameter of C2C12 myotube cells (anti-MHC immunostaining, imaging analysis)
Assay type: cell-based
Conditions: for Maximum transverse diameter/myotube cell (%) Average value / Myotube area/field of view (%) Average value: two days, untreated control = 100%
Experimental: Cells of mouse myoblast strain C2C12 (ATCC catalog no. CRL-1772)
Proliferation culture medium: DMEM (high glucose) to which 10% FBS and 1% PS are added
Differentiation culture medium: DMEM (high glucose) to which 2% HS and 1% PS are added
The fatty acids indicated below were added to the culture medium so as to reach a concentration of 0.05 mM, 0.2 mM, or 0.5 mM. As a positive control, insulin-like growth factor (IGF-1) (made by Sigma-Aldrich Co., LLC), which is a factor for promoting formation of myotube cells, was added to the culture medium so as to reach a concentration of 10 ng/mL.
The fatty acids were dissolved in dimethyl sulfoxide (DMSO) (made by Nacalai Tesque Inc.) to formulate solutions having a concentration of 0.05 M, 0.2 M, 0.5 M, or 1 M, and the solutions were added in 1/1000 amounts to the culture medium to reach a target final concentration of 0.05 mM, 0.2 mM, 0.5 mM, or 1 mM. The IGF-1 serving as a positive control was formulated to a concentration of 10 μg/mL using 0.1 N HCl, and the resultant solution was added in a 1/1000 amount to the culture medium to reach a target final concentration of 10 ng/mL.
The C2C12 cells were recovered in a T75 flask using the proliferation culture medium and cultured using a CO2 incubator (37° C., 5% CO2, moist; same applies below). The culture medium was replaced at intervals of one to two days. The cells were peeled away (3 to 5 minutes) using 0.25% trypsin-EDTA (made by Nacalai Tesque Inc.) (1 mL) at the point in time when 80% confluence was reached, and 5 mL of culture medium was added, after which the components were centrifuged (180×g, 5 minutes, room temperature). A supernatant was removed, and cell pellets were suspended in fresh culture medium and sown in a 96-well black plate at a rate of 10,000 cells/0.1 mL/well. The next day, the culture medium was replaced with the differentiation culture medium, and culturing was carried out for two days to induce differentiation into myotube cells. The culture medium was then replaced with differentiation culture medium (100 μL) to which the substance under test was added, and culturing was carried out for a further two days.
After treatment with the substance under test, the wells were refilled with 100 μL of a fixing solution (4% PFA: paraformaldehyde (made by Nacalai Tesque Inc.)), incubated for 15 minutes at 4° C., and then washed three times using Dulbecco's Phosphate-Buffered Saline (DPBS) (made by Thermo Fisher Scientific Inc.). 100 μL of a blocking/membrane permeation liquid solution (0.3% TritonX/3% BSA/DPBS) was added, and the components were incubated for 30 minutes at room temperature. The aforementioned solution replaced with a primary antibody solution (primary antibody reagent (diluted by a factor of 300)/3% BSA/DPBS) and then incubated overnight at 4° C. The primary antibody solution was removed, and the wells were washed three times using a blocking solution (3% BSA/DPBS) before being refilled with a secondary antibody solution (secondary antibody reagent (diluted by a factor of 500)/0.1% nucleus-staining reagent/3% BSA/DPBS) and incubated for two hours at room temperature. Finally, the wells were washed three times using DPBS and refilled with new DPBS before imaging analysis was carried out.
An automatic cell image system (“Operetta CLS,” made by PerkinElmer Inc.) was used in the imaging analysis of the immunostained cells. Nine fields of view of central sections of the wells were imaged using a 10× objective lens, and then fluorescent regions marked by the anti-MHC antibodies and cell nucleus regions marked by the nucleus-staining reagent were detected using image analysis software (Harmony 4.6) included with the system. […]

[1] = Table 1 data, 0.5 mM, vs comparative example 1-1, Dunnett's test, 5%
[2] = Table 2 data, 0.2 mM, vs comparative example 2-1
[3] = Table 2 data, 0.5 mM, vs comparative example 2-1
[4] = Table 3 data, 0.5 mM, vs comparative example 3-1

Question: CCCCCCCCCCCCCCCCC(=O)O [Heptadecanoic acid (C17:0), Heptadecanoic acid, reference compound] was tested. Which “Maximum transverse diameter/myotube cell (%) Average value” (Table 1, 0.5 mM, n=5) did it give?
Answer: 98.4%

Question: What about the “Myotube area/field of view (%) Average value” (Table 1, 0.5 mM, n=5) of the same compound?
Answer: 82.8%

Question: What about the “area of the myotube cells within the fields of view, change versus control (in words)” value (from here on “area … change versus control (in words)”) [1] of the same compound?
Answer: significantly decreased

Question: CCCCCCCCCCCCCCCC(=O)O [Hexadecanoic acid (C16:0), Hexadecanoic acid, reference compound] was tested. Which “Maximum transverse diameter/myotube cell (%) Average value” (Table 4, 0.05 mM) did it give?
Answer: 98.7%

Question: And the “Myotube area/field of view (%) Average value” (Table 4, 0.05 mM)?
Answer: 91.4%

Question: And the “Maximum transverse diameter/myotube cell (%) Average value” (Table 4, 0.5 mM)?
Answer: 104.9%

Question: What about the “Myotube area/field of view (%) Average value” (Table 4, 0.5 mM) of the same compound?
Answer: 80.9%

Question: And the “per-cell maximum transverse diameter of the myotube cells, effect (in words)” value (Table 4 data, 0.05 mM)?
Answer: no effect

Question: What about the “per-cell maximum transverse diameter of the myotube cells, effect (in words)” value (Table 4 data, 0.5 mM) of the same compound?
Answer: no effect

Question: What about the “area … change versus control (in words)” value (Table 4 data, 0.5 mM, vs comparative example 4-1) of the same compound?
Answer: significantly decreased

Question: CCCCCCCCCCCCCCC(=O)O [Pentadecanoic acid (C15:0), Pentadecanoic acid] was tested. Which “Maximum transverse diameter/myotube cell (%) Average value” (Table 1, 0.5 mM, n=5) did it give?
Answer: 132.2%

Question: And the “Myotube area/field of view (%) Average value” (Table 1, 0.5 mM, n=5)?
Answer: 116.0%

Question: What about the “area … change versus control (in words)” value [1] of the same compound?
Answer: significantly increased

Question: What about the “per-cell maximum transverse diameter of the myotube cells, change versus control (in words)” value [1] of the same compound?
Answer: significantly increased

Question: And the “Maximum transverse diameter/myotube cell (%) Average value” (Table 2, 0.05 mM)?
Answer: 103.0%

Question: And the “Myotube area/field of view (%) Average value” (Table 2, 0.05 mM)?
Answer: 108.0%

Question: And the “Maximum transverse diameter/myotube cell (%) Average value” (Table 2, 0.2 mM)?
Answer: 109.3%

Question: What about the “Myotube area/field of view (%) Average value” (Table 2, 0.2 mM) of the same compound?
Answer: 119.3%

Question: And the “Maximum transverse diameter/myotube cell (%) Average value” (Table 2, 0.5 mM)?
Answer: 111.4%

Question: What about the “Myotube area/field of view (%) Average value” (Table 2, 0.5 mM) of the same compound?
Answer: 118.7%

Question: What about the “per-cell maximum transverse diameter of the myotube cells, change versus control (in words)” value (Table 2 data, 0.05 mM, vs comparative example 2-1) of the same compound?
Answer: significantly increased

Question: What about the “area … change versus control (in words)” value [2] of the same compound?
Answer: significantly increased

Question: And the “per-cell maximum transverse diameter of the myotube cells, change versus control (in words)” value [2]?
Answer: significantly increased

Question: What about the “area … change versus control (in words)” value [3] of the same compound?
Answer: significantly increased

Question: And the “per-cell maximum transverse diameter of the myotube cells, change versus control (in words)” value [3]?
Answer: significantly increased

Question: What does the source list for CCCCCCCCCCCCCC(=O)O [Tetradecanoic acid (C14:0), Tetradecanoic acid]?
Answer: Maximum transverse diameter/myotube cell (%) Average value (Table 3, 0.5 mM): 108.6%; Myotube area/field of view (%) Average value (Table 3, 0.5 mM): 114.7%; Maximum transverse diameter/myotube cell (%) Average value (Table 3, 1 mM): 124.4%; Myotube area/field of view (%) Average value (Table 3, 1 mM): 107.3%; area of the myotube cells within the fields of view, change versus control (in words) [4]: significantly increased; per-cell maximum transverse diameter of the myotube cells, change versus control (in words) [4]: significantly increased; per-cell maximum transverse diameter of the myotube cells, change versus control (in words) (Table 3 data, 1.0 mM, vs comparative example 3-1): significantly increased

Question: Which results are given for CCCCCCCCCCCCC(=O)O [Tridecanoic acid (C13:0), Tridecanoic acid]?
Answer: Maximum transverse diameter/myotube cell (%) Average value (Table 1, 0.5 mM, n=5): 124.1%; Myotube area/field of view (%) Average value (Table 1, 0.5 mM, n=5): 98.1%; per-cell maximum transverse diameter of the myotube cells, change versus control (in words) [1]: significantly increased

Question: CCCCCCCCCCC(=O)O [Undecanoic acid (C11:0), Undecanoic acid, reference compound] was tested. Which “Maximum transverse diameter/myotube cell (%) Average value” (Table 1, 0.5 mM, n=5) did it give?
Answer: 103.1%

Question: What about the “Myotube area/field of view (%) Average value” (Table 1, 0.5 mM, n=5) of the same compound?
Answer: 103.4%

Question: And the “effect on the myotube cells (in words)” value (Table 1 data, 0.5 mM)?
Answer: no effect

Question: Which “Maximum transverse diameter/myotube cell (%) Average value” (Table 1, 10 ng/mL) does the source give for “IGF-1: insulin-like growth factor (IGF-1), a factor for promoting formation of myotube cells; positive control at 10 ng/mL” here?
Answer: 101.8%

Question: And the “Myotube area/field of view (%) Average value” (Table 1, 10 ng/mL)?
Answer: 114.1%

Question: What about the “Maximum transverse diameter/myotube cell (%) Average value” (Table 2, 10 ng/mL) of the same compound?
Answer: 99.1%

Question: And the “Myotube area/field of view (%) Average value” (Table 2, 10 ng/mL)?
Answer: 126.8%

Question: And the “Maximum transverse diameter/myotube cell (%) Average value” (Table 3, 10 ng/mL)?
Answer: 100.4%

Question: And the “Myotube area/field of view (%) Average value” (Table 3, 10 ng/mL)?
Answer: 120.5%

Question: What about the “Maximum transverse diameter/myotube cell (%) Average value” (Table 4, 10 ng/mL) of the same compound?
Answer: 104.8%

Question: And the “Myotube area/field of view (%) Average value” (Table 4, 10 ng/mL)?
Answer: 132.8%
